From patent US20230054887A1, “SWEETENING AND TASTE-MASKING COMPOSITIONS, PRODUCTS AND USES THEREOF” (HEALTHTECH BIO ACTIVES, S.L.U., priority 2017, published 2023)

Assays:
Assay type in all cases: in vivo
[1] = Taste profile by calibrated taste panel at concentrations equisweet to 3% sucrose; settings: 0- to 5-point scale
Procedure: The overall taste profile achieved with the sweetening composition of the present invention was evaluated and compared with the target taste profile of sucrose.
For this assay, all samples were evaluated at the same sweetness level, so each sample was used at a concentration which was equisweet to 3% sucrose. For each sample, the following parameters were evaluated: • Time to first sweetness detection • Time to maximum sweetness • Lingering (time for the sweetness to disappear) • Off-flavour: menthol, liquorice (any tastes that are different from sweetness) • Mouthfeel (density, i.e., the perceived viscosity in the mouth)
These evaluations were carried out by a calibrated taste panel, and conducted at room temperature.
Each of those parameters was evaluated on a 0- to 5-point scale. The values for sucrose were the reference, and were considered the target to emulate.

[2] = Sweetening synergy sensory test: concentration equisweet to sucrose reference solutions in water, expert panel; settings: for Relative sweetening power: ratio sucrose concentration / equisweet concentration; for Equisweet concentration: room temperature
Procedure: A sensory test was performed to assess the sweetening synergism achieved with the composition of the invention (Examples A and B), and this effect was also compared to the effect obtained with analogous compositions containing beta-cyclodextrin (Comparative Examples A and B). Further compositions of the present invention (Examples C, D and E) were also assessed in this sensory test.
A group of expert panellists in sweet descriptors evaluated the sweetness of the different compositions as well as that of the ingredients NHDC, beta-cyclodextrin and gamma-cyclodextrin used alone.
Each evaluated sweetening agent was dissolved in water at different concentrations, at room temperature. The panel then determined, for each product, the concentration that was equisweet to the reference solutions of 1% and 3% sucrose in water. The results are summarized in Table 3 (Examples A and B are abbreviated as Ex. A and Ex. B, respectively, and the Comparative Examples A and B are abbreviated as Comp. A and Comp. B, respectively).
Since beta- and gamma-cyclodextrins are also sweet compounds, the equisweet concentrations of both cyclodextrins were also determined by the test panel to assess their possible contribution to the sweetness of the composition. […] Therefore, as the equisweet concentrations of both cyclodextrins are at least three orders of magnitude larger than those of NHDC, it was concluded that their contribution to the sweetness was negligible.
A more quantitative evaluation of the sweetness synergy provided by the compositions of the present invention was performed by comparing the real measured sweetness of the compositions comprising gamma-cyclodextrin and NHDC with the theoretical sweetness expected from the sum of the individual contribution of each component in the composition.
To this end, the relative sweetening power of each component was first calculated. For comparative purposes, the relative sweetening power of beta-cyclodextrin was also calculated. The relative sweetening power of a given compound, at a given sweetness level, indicates how many times sweeter this compound is than sucrose. It is therefore calculated as the ratio between the concentration of sucrose and the equisweet concentration of each ingredient, for each sweetness level.
From the relative sweetening power of each ingredient, it is possible to calculate the expected sweetness (sucrose equivalence) of a blend of those ingredients, according to Formula I:
Expected sweetness (sucrose equivalence) of a blend C1+C2=Concentration of compound C1×relative sweetening power of compound C1+Concentration of compound C2×relative sweetening power of compound C2
Then, the sweetness synergy of a blend of components can be calculated according to Formula II: […]
As disclosed above in Example 3, the relative sweetening power of a given compound, at a given sweetness level, indicates how many times sweeter than sucrose the compound is, and the value is calculated as the ratio between the concentration of sucrose and the equisweet concentration of the compound.

[3] = Masking bitterness of quinine, test panel, equibitter solution; settings: 250 ppm quinine
Procedure: The bitter masking effect against quinine was assayed, following an analogous procedure to the one used in Example 10 for paracetamol.
The following substances were assayed: NHDC alone, beta-cyclodextrin alone, a composition comprising NHDC and beta-cyclodextrin in a molar ratio 1:1 (Example F) and a composition comprising NHDC and beta-cyclodextrin in a molar ratio 1:3 (Example G).
Analogously to Example 10, several aqueous solutions were prepared, each containing 250 ppm of quinine and different concentrations of the tested substance, namely, 5, 25, 50, 75 and 100 ppm. For each tested solution, a test panel determined the equibitter quinine solution, and the masking effect was calculated using a formula analogous to formula III (substituting 5000 with […]).
The masking synergies between beta-cyclodextrin and NHDC in Examples F and G were calculated following an analogous procedure to the one disclosed in Example 10. Therefore, using the molecular weight of each component, the amounts of beta-cyclodextrin and NHDC contained in each amount of the combinations of Examples F and G were calculated and, then, the antibittering contribution of each component was calculated on the basis of the data of Table 19. The expected masking effect was calculated as the sum of the contributions of each component, and, finally, the masking synergy was calculated (using Formula IV).

[4] = Masking bitterness of paracetamol, calibrated test panel, equibitter solution; settings: 5000 ppm paracetamol
Procedure: The bitter masking effect against paracetamol was assayed. The anti-bittering effect was measured as a dose-response profile vs. a solution of paracetamol.
The following substances were assayed: NHDC alone, gamma-cyclodextrin alone and compositions comprising NHDC and gamma-cyclodextrin in a molar ratio 1:3 (Example B), 1.5:1 (Example C), 1:6 (Example D) and 1:10 (Example E).
For evaluating the masking effect of each substance, several aqueous solutions were prepared, each containing 5000 ppm of paracetamol and different concentrations of the tested substance, namely, 5, 25, 50, 75 and 100 ppm.
A calibrated test panel compared each solution with several solutions of paracetamol in water at different concentrations, and determined the equibitter paracetamol solution. The equibitter solution was calculated as the average of all the evaluations of the panel.
The masking effect was then calculated from the reference amount of paracetamol contained in each tested solution (5000 ppm) and the amount of paracetamol in the equibitter solution, using the following formula (Formula III): […]
For calculating the masking synergies between gamma-cyclodextrin and NHDC, first, for each amount of the combination (Examples A-E), using the molecular weight of each component, the amounts of gamma-cyclodextrin and NHDC contained therein were calculated. For example, 100 ppm of Example B contain 13.61 ppm of NHDC and 86.39 ppm of gamma-cyclodextrin. Then, the antibittering contribution of each component in the composition was calculated, on the basis of the data of Table 13. For example, 13.61 ppm of NHDC provide 9.44% masking effect and 86.39 ppm of gamma-cyclodextrin provide 5.46% masking effect (the antibittering effects for each specific concentration was calculated by interpolation of the data points in Table 13). Therefore, the expected masking effect is calculated as the sum of the contributions of each component. For example, the expected masking effect of 100 ppm of Example B is 14.90 (i.e., 9.44 plus 5.46).
Finally, the masking synergy is calculated using Formula IV: […]
The masking effect of Examples C (NHDC:gCD 1.5:1), D (NHDC:gCD 1:6) and E (NHDC:gCD 1:10) was also evaluated. Aqueous solutions were prepared, each one of them containing 5000 ppm of paracetamol and different concentrations of each one of the tested formulations Ex. C-E, namely, 25 and 50 ppm. Results are disclosed in Tables 15 to 17.

[5] = equisweet to 1% sucrose in water
[6] = equisweet to 3% sucrose in water

OC[C@H]1O[C@@](CO)(O[C@H]2O[C@H](CO)[C@@H](O)[C@H](O)[C@H]2O)[C@@H](O)[C@@H]1O [Sucrose, sucrose]
Lingering [1]: 2.00 | Mouthfeel (density) [1]: 4.00 | Off-flavour: menthol, licorice [1]: 0.00 | Time to first sweetness [1]: 1.00 | Time to maximum sweetness [1]: 2.00 | Total sweetness [1]: 5.00

OC[C@H]1O[C@@H]2O[C@H]3[C@H](O)[C@@H](O)[C@@H](O[C@H]4[C@H](O)[C@@H](O)[C@@H](O[C@H]5[C@H](O)[C@@H](O)[C@@H](O[C@H]6[C@H](O)[C@@H](O)[C@@H](O[C@H]7[C@H](O)[C@@H](O)[C@@H](O[C@H]8[C@H](O)[C@@H](O)[C@@H](O[C@H]1[C@H](O)[C@H]2O)O[C@@H]8CO)O[C@@H]7CO)O[C@@H]6CO)O[C@@H]5CO)O[C@@H]4CO)O[C@@H]3CO [bCD, Beta-Cyclodextrin]
Relative sweetening power ([2]; 1% sucrose level): 0.8333 | Relative sweetening power ([2]; 3% sucrose level): 0.4286 | Equisweet concentration [2, 5]: 12000 ppm | Equisweet concentration [2, 6]: 70000 ppm | Masking effect (real) ([3]; tested substance 5 ppm): 0.00% | Masking effect (real) ([3]; tested substance 25 ppm): 6.67% | Masking effect (real) ([3]; tested substance 50 ppm): 11.67% | Masking effect (real) ([3]; tested substance 75 ppm): 16.67% | Masking effect (real) ([3]; tested substance 100 ppm): 13.33%

OC[C@H]1O[C@@H]2O[C@H]3[C@H](O)[C@@H](O)[C@@H](O[C@H]4[C@H](O)[C@@H](O)[C@@H](O[C@H]5[C@H](O)[C@@H](O)[C@@H](O[C@H]6[C@H](O)[C@@H](O)[C@@H](O[C@H]7[C@H](O)[C@@H](O)[C@@H](O[C@H]8[C@H](O)[C@@H](O)[C@@H](O[C@H]9[C@H](O)[C@@H](O)[C@@H](O[C@H]1[C@H](O)[C@H]2O)O[C@@H]9CO)O[C@@H]8CO)O[C@@H]7CO)O[C@@H]6CO)O[C@@H]5CO)O[C@@H]4CO)O[C@@H]3CO [gCD, gamma-cyclodextrin]
Relative sweetening power ([2]; 1% sucrose level): 0.4000 | Relative sweetening power ([2]; 3% sucrose level): 0.3529 | Equisweet concentration [2, 5]: 25000 ppm | Equisweet concentration [2, 6]: 85000 ppm | Masking effect (real) ([4]; tested substance 5 ppm): 1.00% | Masking effect (real) ([4]; tested substance 25 ppm): 2.00% | Masking effect (real) ([4]; tested substance 50 ppm): 4.00% | Masking effect (real) ([4]; tested substance 75 ppm): 5.00% | Masking effect (real) ([4]; tested substance 100 ppm): 6.00%
